# Experimental data as given in PMC8786932, “Bicyclic azetidines target acute and chronic stages of Toxoplasma gondii by inhibiting parasite phenylalanyl t-RNA synthetase” (Nature Communications, 2022).
# “And” between values parts separate entries of the source, which are not always exact repeats. Equal values may be shown once. Read-outs that look alike come from different tables or passages of the source.
# What was measured:
# [1] = system: firefly luciferase expressing T. gondii strains (GT1, RH, ME49, CTG, MAS, RUB, FOU, VAND); assay: Luciferase-based growth assay, FLuc parasites of diverse genotypes; type: cell-based; conditions: Toxoplasma gondii
# Method: In vitro cultures of HFF cells containing mature vacuoles were scraped, passaged through 23 g blunt end needles, and filtered using 3 micron filters. Purified parasites were resuspended in 350 μL of cytomix plus[49] and combined in a BTX 4 mm gap cuvette with 30 μL of PCR amplified templates corresponding to mutations of interest and 10 μg of pSAG1:Cas9-GFP U6:sgTgPheRS^[mut] (in 20 μL, 400 μL total volume, see Supplementary Data 1 for sgRNA sequences) prior to electroporation using a BTX ETM 830 electroporator. Amplified templates for TgPheRS mutations were generated from gBlocks (Integrated DNA Technologies, Coralville, IA, USA) that contain a BclI restriction site that replaces the PAM sequence to protect the repair template from being cut by Cas9. At 16 h post-transfection, transgenic parasites expressing pSAG1:Cas9-GFP were sorted on a Sony SH800 FACS sorter directly into 96-well plates. Single clones containing TgPheRS^[mut] were identified by amplifying a ~500 bp PCR fragment around introduced mutation followed by digestion using BclI (New England Biolabs) BclI sensitive clones were expanded and the locus was Sanger sequenced to verify incorporation of each independent mutation. To generate firefly luciferase (FLuc) expressing strains, freshly harvested parasites were combined with 20 μg of pTUB-FLUC DHFR flox plasmid and 10 μg of pSAG1:Cas9-GFP U6:sgUPRT[50] (in 50 μL cytomix plus) and transformed by electroporation as described above. Parasites were allowed to recover overnight followed by sequential selection with pyrimethamine (1.0 μM) and 5-flurodeoxyuracil (FUDR, 10 μM), as described previously. Stable clones were isolated by limiting dilution and a clone from each genetic background selected based on high luciferase activity (Table 1).
# All assays were carried out in a 96-well plate format containing confluent HFF monolayers to support parasite growth. To avoid edge effects, only the inner 60 wells of each plate were used. All compounds described were provided by the Broad Institute as 10 mM stocks in 100% DMSO and stored at −80 °C prior to use. Pyrimethamine (Sigma-Aldrich) was prepared as 5 mM stock in 100% DMSO and stored at −20 °C prior to use.
# recombinant HsPheRS = biological target: T1, recombinant HsPheRS (Homo sapiens, UniProt Q9Y285); assay: Malachite green aminoacylation enzyme assay, HsPheRS; conditions: for Hu PheRS enzyme assay raw signal: replicates
# T1 sequence (Q9Y285 1-508): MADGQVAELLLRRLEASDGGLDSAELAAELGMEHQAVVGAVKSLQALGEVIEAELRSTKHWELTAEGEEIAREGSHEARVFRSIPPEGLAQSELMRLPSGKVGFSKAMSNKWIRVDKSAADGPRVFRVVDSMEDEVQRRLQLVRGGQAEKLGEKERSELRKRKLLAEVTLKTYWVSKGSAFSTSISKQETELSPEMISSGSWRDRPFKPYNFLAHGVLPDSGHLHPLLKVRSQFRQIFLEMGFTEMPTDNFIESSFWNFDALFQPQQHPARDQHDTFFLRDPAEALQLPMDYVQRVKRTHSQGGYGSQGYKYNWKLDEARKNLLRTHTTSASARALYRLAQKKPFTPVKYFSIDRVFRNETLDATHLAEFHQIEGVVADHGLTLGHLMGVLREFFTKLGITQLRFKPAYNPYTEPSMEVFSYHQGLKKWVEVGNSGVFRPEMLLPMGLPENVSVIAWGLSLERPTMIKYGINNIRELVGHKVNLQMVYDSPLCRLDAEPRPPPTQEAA
# T1 sequence (Q9NSD9 1-589 partner): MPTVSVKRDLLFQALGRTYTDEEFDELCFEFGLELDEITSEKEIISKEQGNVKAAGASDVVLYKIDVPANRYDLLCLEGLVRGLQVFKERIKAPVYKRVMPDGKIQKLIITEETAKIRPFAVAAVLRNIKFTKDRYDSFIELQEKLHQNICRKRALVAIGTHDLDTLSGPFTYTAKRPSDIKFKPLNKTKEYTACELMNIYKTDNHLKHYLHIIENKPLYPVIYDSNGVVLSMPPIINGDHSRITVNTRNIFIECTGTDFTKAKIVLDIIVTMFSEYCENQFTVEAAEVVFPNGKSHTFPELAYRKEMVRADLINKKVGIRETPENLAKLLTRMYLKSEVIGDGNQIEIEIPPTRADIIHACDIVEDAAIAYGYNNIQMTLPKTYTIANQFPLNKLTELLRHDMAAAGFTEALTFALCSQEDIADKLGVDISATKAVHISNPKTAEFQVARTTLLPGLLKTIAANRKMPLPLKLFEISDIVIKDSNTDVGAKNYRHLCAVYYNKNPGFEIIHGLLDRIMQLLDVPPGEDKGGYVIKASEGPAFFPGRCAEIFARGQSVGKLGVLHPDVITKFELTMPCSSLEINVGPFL
smiles,measurement,setting,value
COc1ccc(NC(=O)N2CCCCN3[C@H](CN(C)C)[C@H](c4ccc(C#Cc5ccccc5)cc4)[C@@H]3C2)cc1 [BRD7929],EC50,"[1]; GT1, all eight lineages, read-out: EC50 against tachyzoite growth, all lineages",< 50 nM
same,EC50,"[1]; GT1, strain CTG, type III, N. America, read-out: EC50",31.5 nM
same,EC50,"[1]; GT1, strain FOU, type VI, Europe, read-out: EC50",45.1 nM
same,EC50,"[1]; GT1, strain GT1, type I, N. America, read-out: EC50",16.1 nM
same,EC50,"[1]; GT1, strain MAS, type IV, Europe, read-out: EC50",42 nM
same,EC50,"[1]; GT1, strain ME49, type II, Europe, read-out: EC50",49.4 nM
same,EC50,"[1]; GT1, strain RH, type I, Europe, read-out: EC50",24.1 nM
same,EC50,"[1]; GT1, strain RUB, type V, S. America, read-out: EC50",26.9 nM
same,EC50,"[1]; GT1, strain VAND, type X, S. America, read-out: EC50",27.9 nM
same,IC50,recombinant HsPheRS,22300 nM
same,Hu PheRS enzyme assay raw signal,recombinant HsPheRS; BRD7929 0.000001 μM,0.7213 and 0.8235 and 0.7680
same,Hu PheRS enzyme assay raw signal,recombinant HsPheRS; BRD7929 0.000010 μM,0.6210 and 0.7246 and 0.7585
same,Hu PheRS enzyme assay raw signal,recombinant HsPheRS; BRD7929 0.000100 μM,0.6366 and 0.8166 and 0.8094
same,Hu PheRS enzyme assay raw signal,recombinant HsPheRS; BRD7929 0.001000 μM,0.7178 and 0.7568 and 0.6293
same,Hu PheRS enzyme assay raw signal,recombinant HsPheRS; BRD7929 0.010000 μM,0.4951 and 0.5827 and 0.6166
same,Hu PheRS enzyme assay raw signal,recombinant HsPheRS; BRD7929 0.100000 μM,0.5035 and 0.5467 and 0.5776
same,Hu PheRS enzyme assay raw signal,recombinant HsPheRS; BRD7929 1.000000 μM,0.4827 and 0.4553 and 0.5046
same,Hu PheRS enzyme assay raw signal,recombinant HsPheRS; BRD7929 10.000000 μM,0.4350 and 0.4477 and 0.4390
same,Hu PheRS enzyme assay raw signal,recombinant HsPheRS; BRD7929 100.000000 μM,0.4107 and 0.4228 and 0.4405
